# Laboratory results published in US20070225338A1, “Juvenile Hormone Analogs for Control of Leafhopper and Treehopper Pests” (priority 2004, published 2007).
# Several values for one entry are separate records, joined by “and”; a condition that tells them apart may be missing. Equal values may be shown once.
# How the values were obtained:
# GWSS = settings: cited from earlier work; for efficacy against GWSS (CDFA nursery shipping protocol list): in vivo; for speed of activity against GWSS: tested over several weeks, Redak and Bethke
# [1] = system: Draeculacephala crassicornis; settings: topical, substrate and vapor treatments; cited from earlier work
# [2] = system: Homalodisca coagulata females; experiment: Example 4: mortality of JH analog-treated field-collected gravid females; format: in vivo; settings: 10 days post-treatment, fifteen females per treatment
# Experimental: The treatment rates for all three: methoprene, kinoprene, and hydroprene are listed below.
# This example summarizes two ongoing tests involving field-collected gravid females and eggs oviposited less than 24 hours prior to treatment. […] After eclosion the neonates will be held on host plants until death or successful development to the second instar, which ever occurs first.
# Fifteen females were used for each treatment. […] The females will be dissected to determine if there are sub-lethal effects of the JH analogs on the reproductive system.
# [3] = system: Homalodisca coagulata (Say); experiment: Example 1: females in diapause sprayed with compound, oviposition and dissection of reproductive system; format: in vivo
# Source text: (§1) As described in Examples 1 and 2, the inventors topically applied methoprene in an aqueous solution to GWSS females that were: 1) over-wintering in reproductive diapause or 2) females that were newly eclosed adults and not yet reproductively active. […] Untreated females ordinarily will begin reproductive cycles 10-12 days post eclosion.
# Ten female Homalodisca coagulata (Say) were sprayed until visibly wet with the candidate compound. They were then placed into a wooden 1 m screened cage that was provisioned with five males and glabrous soybean, Glycine max (L.) A similar untreated control cage was also set up with females sprayed with distilled water. All leafhoppers were taken from a greenhouse culture and were in the process of terminating winter reproductive diapause. Females were checked daily for the presence of brochosomes and plants were checked for egg masses. Cages were in a greenhouse maintained at 32° C. and equipped with artificial lighting for a 14:10 photoperiod. Surviving females were dissected after thirty days and their reproductive status was evaluated.
# H. coagulata = experiment: Example 2: newly-eclosed adult females treated with compound, dissection after 36 days; format: in vivo, Homalodisca coagulata
# Experimental: as §1
# Seven newly eclosed adult female H. coagulata were treated with the compound. The solution was applied with an aerosol device until individuals were noticeable wet. After treatment, female were placed into a wooden 1 m-screened cage that was provisioned with crape myrtle, eastern saltbush, and soybean. Five males of unknown ages were added to the cage. Female were dissected after 36 days. Males were discarded.
# GWSS nymphs = experiment: Treatment of GWSS nymphs; format: in vivo, Homalodisca coagulata
# GWSS females = experiment: Treatment of reproductively-active females; format: in vivo, Homalodisca coagulata; settings: following weeks of evaluation
# [4] = system: egg parasitoids, Gonatocerus spp.; experiment: Impact on egg parasitoids; settings: non-target Gonatocerus spp.
# [5] = treatment A: 1/100 of recommended dose
# [6] = treatment B: 1/10 of recommended dose
# [7] = treatment D: 10× recommended dose
# [8] = treated diapausing females, one value per surviving female, dissected after thirty days
# [9] = newly eclosed adult females, one value per female, 36 days post-treatment
compound,measurement,setting,value
Cc1c(COC(=O)[C@@H]2[C@H](/C=C(\Cl)C(F)(F)F)C2(C)C)cccc1-c1ccccc1 (racemic) [bifenthrin],efficacy against GWSS (CDFA nursery shipping protocol list),GWSS,some efficacy
"CC(COc1ccc(Oc2ccccc2)cc1)Oc1ccccn1 (racemic) [pyriproxifen, 4-phenoxyphenyl (RS)-2-(2-pyridyloxy)propyl ether]",speed of activity against GWSS,GWSS,too slow to be useful for eradication purposes
COC(=O)C=C(C)CCC=C(C)CCC1OC1(C)C (stereo not shown) [Juvenile hormone III],effect on diapause,[1],terminated diapause
COP(=O)(NC(C)=O)SC (stereo not shown) [acephate],efficacy against GWSS (CDFA nursery shipping protocol list),GWSS,some efficacy
CC(C)N1C(=O)N(c2ccccc2)CS/C1=N\C(C)(C)C [buprofizen],speed of activity against GWSS,GWSS,too slow to be useful for eradication purposes
CNC(=O)Oc1cccc2ccccc12 [carbaryl],efficacy against GWSS (CDFA nursery shipping protocol list),GWSS,some efficacy
CCOP(=S)(OCC)Oc1nc(Cl)c(Cl)cc1Cl [chlorpyrifos],efficacy against GWSS (CDFA nursery shipping protocol list),GWSS,some efficacy
CC1(C)C(C=C(Cl)Cl)C1C(=O)OC(C#N)c1ccc(F)c(Oc2ccccc2)c1 (stereo not shown) [cyfluthrin],efficacy against GWSS (CDFA nursery shipping protocol list),GWSS,some efficacy
CC1(C)[C@H](C(=O)O[C@H](C#N)c2cccc(Oc3ccccc3)c2)[C@@H]1C=C(Br)Br [deltamethrin],efficacy against GWSS (CDFA nursery shipping protocol list),GWSS,some efficacy
CC1(C)C(C(=O)OC(C#N)c2cccc(Oc3ccccc3)c2)C1(C)C (stereo not shown) [fenpropathrin],efficacy against GWSS (CDFA nursery shipping protocol list),GWSS,some efficacy
"CCOC(=O)/C=C(C)/C=C/CC(C)CCCC(C)C (stereo not shown) [hydroprene, ethyl (2E,4E)-3,7,11-trimethyl-2,4-dodecadienoate]",number of dead female Homalodisca coagulata,[2]; [5],3
same,number of dead female Homalodisca coagulata,[2]; [6],0
same,number of dead female Homalodisca coagulata,[2]; treatment C: recommended dose,0
same,number of dead female Homalodisca coagulata,[2]; [7],14
O=[N+]([O-])NC1=NCCN1Cc1ccc(Cl)nc1 [imidaclopid],efficacy against GWSS (CDFA nursery shipping protocol list),GWSS,some efficacy
"C#CCOC(=O)/C=C(C)/C=C/CC(C)CCCC(C)C [kinoprene, 2-propynl (2E,4E)-(7S)-3,7,11-trimethyl-2,4-dodecadienoate]",number of dead female Homalodisca coagulata,[2]; [5],1
same,number of dead female Homalodisca coagulata,[2]; [6],1
same,number of dead female Homalodisca coagulata,[2]; treatment C: recommended dose,0
same,number of dead female Homalodisca coagulata,[2]; [7],0
CNC(=O)Oc1cc(C)c(SC)c(C)c1 [methiocarb],efficacy against GWSS (CDFA nursery shipping protocol list),GWSS,some efficacy
"COC(C)(C)CCC[C@H](C)C/C=C/C(C)=C/C(=O)OC(C)C [methoprene, isopropyl (2E,4E)-11-methoxy-3,7,11-trimethyl-2-2,4-dodecadienoate]",reproductive activity of surviving treated females on dissection,[3]; after 30 days,had not begun reproductive activity
same,eggs produced by treated females,"[3]; diapausing females, 30 days",No eggs were produced
same,time treated females remained reproductively inactive,"[3]; diapausing females, topical aqueous solution, summer conditions (32° C., 14:10 L:D), untreated controls oviposit after 10 days",at least 30 days
same,Brochosomes (within Malpigian tubules),[3]; [8],1
same,Fat body,[3]; [8],2
same,Ova,[3]; [8],1
same,Ovarioles,"[3]; treated diapausing females, one value per surviving female, dissected after thirty days, 32° C., 14:10 photoperiod",2
same,time without egg production post-treatment,H. coagulata; 36 days was the maximum time tested,at least 36 days
same,accumulated fat body in treated females,H. coagulata; dissection of adult females,high amount of accumulated fat body
same,effect on development of brochosomes and ovarioles,H. coagulata; dissection of reproductive system of adult females,inhibits the development of both brochosomes and ovarioles
same,Brochosomes,H. coagulata; [9],1 and 1.5
same,Fat body,H. coagulata; [9],2.5 and 1.5 and 2
same,Ova,H. coagulata; [9],1
same,Ovarioles,H. coagulata; [9],2
same,eggs produced by treated females,"H. coagulata; newly eclosed females, 36 days",no eggs were produced
same,ovariole (reproductive) development on dissection,"H. coagulata; newly eclosed females, 36 days",inhibited
same,egg development and oviposition after treatment,"H. coagulata; newly eclosed females, after 36 days of summer conditions, untreated begin 10-12 days post eclosion",did not develop eggs or oviposit
same,number of dead female Homalodisca coagulata,[2]; [5],0
same,number of dead female Homalodisca coagulata,[2]; [6],0
same,number of dead female Homalodisca coagulata,[2]; treatment C: recommended dose,0
same,number of dead female Homalodisca coagulata,[2]; [7],0
same,"effect of treating nymphs (mortality, time of development, morphology)",GWSS nymphs,"did not cause mortality, increase or decrease time of development, or induce morphological aberrations"
same,oviposition of treated reproductively-active females,GWSS females,oviposited the eggs they contained then stopped
same,impact on egg parasitoids,[4],no impact
O=C(NC(=O)c1c(F)cccc1F)Nc1ccc(OC(F)(F)C(F)OC(F)(F)F)c(Cl)c1 (stereo not shown) [novaluron],speed of activity against GWSS,GWSS,too slow to be useful for eradication purposes
CC1(C)C(C=C(Cl)Cl)C1C(=O)OCc1cccc(Oc2ccccc2)c1 (stereo not shown) [permethrin],efficacy against GWSS (CDFA nursery shipping protocol list),GWSS,some efficacy
